Reference: ChEMBL document CHEMBL1138184, “Synthesis and structure-activity relationship studies of 1,3-diarylprop-2-yn-1-ones: dual inhibitors of cyclooxygenases and lipoxygenases” (J Med Chem, 2006)

Experiments:
5-lipoxygenase = biological target: T1, 5-lipoxygenase (Solanum tuberosum, UniProt O49150); experiment: Inhibitory activity against potato 5LOX
T1 sequence (O49150 whole entry): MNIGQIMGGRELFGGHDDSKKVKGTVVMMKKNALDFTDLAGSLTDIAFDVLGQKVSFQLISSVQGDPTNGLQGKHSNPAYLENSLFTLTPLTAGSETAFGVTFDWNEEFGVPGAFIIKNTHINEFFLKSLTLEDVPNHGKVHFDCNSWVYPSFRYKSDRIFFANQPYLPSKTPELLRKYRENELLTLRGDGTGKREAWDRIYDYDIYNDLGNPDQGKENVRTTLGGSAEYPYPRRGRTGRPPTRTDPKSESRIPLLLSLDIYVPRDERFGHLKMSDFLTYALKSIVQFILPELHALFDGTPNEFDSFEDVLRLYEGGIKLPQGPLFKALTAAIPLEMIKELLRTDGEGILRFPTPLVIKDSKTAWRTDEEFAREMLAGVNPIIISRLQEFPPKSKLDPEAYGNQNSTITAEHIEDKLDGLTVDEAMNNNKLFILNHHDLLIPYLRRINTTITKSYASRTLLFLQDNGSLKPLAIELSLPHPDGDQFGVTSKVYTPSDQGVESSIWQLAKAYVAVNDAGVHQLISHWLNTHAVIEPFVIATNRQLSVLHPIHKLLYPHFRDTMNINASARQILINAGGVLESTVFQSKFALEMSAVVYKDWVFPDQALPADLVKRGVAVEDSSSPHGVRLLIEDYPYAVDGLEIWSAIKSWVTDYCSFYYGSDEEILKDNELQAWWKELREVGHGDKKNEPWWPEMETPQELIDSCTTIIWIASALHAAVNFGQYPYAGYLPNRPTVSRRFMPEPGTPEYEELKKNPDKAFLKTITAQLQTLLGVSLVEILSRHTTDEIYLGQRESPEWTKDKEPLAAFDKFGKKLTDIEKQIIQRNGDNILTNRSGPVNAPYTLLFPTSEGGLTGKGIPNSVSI

[1] = biological target: T2, Prostaglandin G/H synthase 1 (Ovis aries, UniProt P05979); experiment: Inhibitory activity against ovine COX1
T2 sequence (P05979 whole entry): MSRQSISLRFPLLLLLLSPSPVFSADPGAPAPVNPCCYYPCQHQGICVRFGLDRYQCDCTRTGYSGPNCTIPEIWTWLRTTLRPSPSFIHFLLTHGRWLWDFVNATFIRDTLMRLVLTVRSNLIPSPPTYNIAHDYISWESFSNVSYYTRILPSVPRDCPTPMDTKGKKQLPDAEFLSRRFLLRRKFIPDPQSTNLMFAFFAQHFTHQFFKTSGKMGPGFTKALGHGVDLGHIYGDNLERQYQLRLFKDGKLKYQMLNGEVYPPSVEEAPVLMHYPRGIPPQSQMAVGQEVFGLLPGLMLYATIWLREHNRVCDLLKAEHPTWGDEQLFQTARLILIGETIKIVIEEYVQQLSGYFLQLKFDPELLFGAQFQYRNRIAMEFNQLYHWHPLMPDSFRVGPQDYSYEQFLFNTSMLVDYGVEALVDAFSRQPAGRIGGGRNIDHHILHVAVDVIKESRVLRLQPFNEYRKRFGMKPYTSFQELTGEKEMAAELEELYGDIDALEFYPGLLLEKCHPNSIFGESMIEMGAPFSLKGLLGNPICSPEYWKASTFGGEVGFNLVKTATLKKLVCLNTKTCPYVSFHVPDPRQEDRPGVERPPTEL

[2] = biological target: T3, Seed linoleate 13S-lipoxygenase-1 (Glycine max, UniProt P08170)
T3 sequence (P08170 whole entry): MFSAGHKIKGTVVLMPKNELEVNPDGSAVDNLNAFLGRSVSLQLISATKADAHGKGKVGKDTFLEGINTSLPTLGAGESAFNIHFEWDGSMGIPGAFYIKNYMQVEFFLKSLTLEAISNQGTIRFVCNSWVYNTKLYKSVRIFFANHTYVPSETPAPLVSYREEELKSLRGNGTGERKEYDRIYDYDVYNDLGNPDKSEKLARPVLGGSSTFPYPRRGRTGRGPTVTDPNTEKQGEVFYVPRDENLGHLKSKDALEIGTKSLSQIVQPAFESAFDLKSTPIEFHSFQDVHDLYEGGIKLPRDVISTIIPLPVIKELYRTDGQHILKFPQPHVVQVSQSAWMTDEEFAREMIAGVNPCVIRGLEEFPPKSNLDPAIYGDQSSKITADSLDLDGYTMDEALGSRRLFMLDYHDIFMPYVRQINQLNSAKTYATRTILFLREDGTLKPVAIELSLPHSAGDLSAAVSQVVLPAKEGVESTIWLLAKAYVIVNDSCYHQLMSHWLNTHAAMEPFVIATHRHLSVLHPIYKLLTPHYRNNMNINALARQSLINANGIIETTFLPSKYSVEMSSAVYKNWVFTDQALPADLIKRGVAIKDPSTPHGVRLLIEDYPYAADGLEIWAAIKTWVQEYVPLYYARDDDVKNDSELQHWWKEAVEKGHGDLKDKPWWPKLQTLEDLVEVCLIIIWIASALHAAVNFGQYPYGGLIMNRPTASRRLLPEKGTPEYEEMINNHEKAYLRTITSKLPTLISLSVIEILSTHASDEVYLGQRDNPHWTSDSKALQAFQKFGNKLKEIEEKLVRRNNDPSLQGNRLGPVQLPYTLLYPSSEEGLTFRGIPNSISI
Description: Inhibitory activity against soybean 15LOX

Rattus norvegicus [3] = experiment: Anti-inflammatory activity against carrageenan-induced edema in Sprague-Dawley rat paw after 3 hrs of 30 mg/kg, po; assay type: functional
Rattus norvegicus [4] = experiment: Inhibitory activity against 4% NaCl-induced abdominal constriction in Sprague-Dawley rat after 30 min of 30 mg/kg, po; assay type: functional; settings: Abdomen, 0.5 h
Rattus norvegicus [5] = experiment: Inhibitory activity against 4% NaCl-induced abdominal constriction in Sprague-Dawley rat after 60 min of 30 mg/kg, po; assay type: functional; settings: Abdomen, 1 h
Rattus norvegicus [6] = species: Rattus norvegicus; experiment: animal or person; settings: Sprague-Dawley, Abdomen, po, 0.5 h, read-out: Inhibition
Description: Inhibitory activity against 4% NaCl-induced abdominal constriction in Sprague-Dawley rat after 30 min of 5 mg/kg, po

| Compound | IC50 (5-lipoxygenase) [µM] | IC50 [1] [µM] | IC50 [2] [µM] | ED50 (Rattus norvegicus [3]) [mg/kg] | inhibition in vivo at 30 mg/kg (Rattus norvegicus [3]) [%] | inhibition in vivo at 30 mg/kg (Rattus norvegicus [4]) [%] | inhibition in vivo at 30 mg/kg (Rattus norvegicus [5]) [%] | inhibition in vivo at 5 mg/kg (Rattus norvegicus [6]) [%] |
| --- | --- | --- | --- | --- | --- | --- | --- | --- |
| CS(=O)(=O)c1ccc(C#CC(=O)c2cccc([N+](=O)[O-])c2)cc1 | > 10 | 2 | 3.5 | – | – | – | – | – |
| CS(=O)(=O)c1ccc(C#CC(=O)c2ccc(C#N)cc2)cc1 | – | – | – | 90 | 29.6 | 48.6 | 36.2 | – |
| CS(=O)(=O)c1ccc(C#CC(=O)c2ccc(F)c(F)c2)cc1 | 0.4 | – | – | – | 6.8 | 50.8 | 46.1 | – |
| O=C(O)/C=C/c1ccc(O)c(O)c1 [CAFFEIC ACID] | – | – | – | – | 8.2 | 47.2 | 58.3 | – |
| COc1ccc(C(=O)C#Cc2ccc(S(C)(=O)=O)cc2)cc1 | > 10 | – | – | 60.1 | 30.2 | 42.7 | 38.6 | – |
| Cc1ccc(-c2cc(C(F)(F)F)nn2-c2ccc(S(N)(=O)=O)cc2)cc1 [CELECOXIB] | – | – | – | – | – | – | – | 69.3 |
| CS(=O)(=O)c1ccc(C#CC(=O)c2ccc(F)cc2)cc1 | > 10 | – | – | – | 26.3 | 83.8 | 72 | – |
| CS(=O)(=O)c1ccc(C#CC(=O)c2ccno2)cc1 | 1.5 | 32.2 | > 10 | – | – | – | – | – |
| COC(=O)c1ccc(C(=O)C#Cc2ccc(S(C)(=O)=O)cc2)cc1 | > 10 | > 100 | 5 | – | 21.5 | 56.2 | 71.2 | – |
| CCCCc1ccc(C(=O)C#Cc2ccc(S(C)(=O)=O)cc2)cc1 | 4.5 | > 100 | > 10 | – | – | – | – | – |
| COc1ccc(C(=O)C#Cc2ccc(S(C)(=O)=O)cc2)cc1OC | 1 | 3.3 | > 10 | – | – | – | – | – |
| CCCc1ccc(C(=O)C#Cc2ccc(S(C)(=O)=O)cc2)cc1 | 3.2 | 3.2 | 3.2 | – | – | – | – | – |
| COc1ccc(C(=O)C#Cc2ccc(S(C)(=O)=O)cc2)cc1O | > 10 | – | – | – | – | – | – | – |
| CS(=O)(=O)c1ccc(C#CC(=O)c2cccc3ccccc23)cc1 | > 10 | > 100 | > 10 | – | 8.8 | 56.4 | 40.3 | – |
| CS(=O)(=O)c1ccc(C#CC(=O)c2ccc(O)cc2)cc1 | 0.3 | – | – | 51.3 | 37.4 | 52.4 | 56.6 | – |
| COc1cc(C(=O)C#Cc2ccc(S(C)(=O)=O)cc2)ccc1O | > 10 | – | – | – | 26 | 15.4 | 45.8 | – |
| CS(=O)(=O)c1ccc(C#CC(=O)c2cccc(O)c2)cc1 | 0.3 | – | – | – | – | – | – | – |
| CSc1ccc(C(=O)C#Cc2ccc(S(C)(=O)=O)cc2)cc1 | – | 9.2 | 0.36 | – | – | – | – | – |
| CC(Cc1ccc(O)c(O)c1)C(C)Cc1ccc(O)c(O)c1 (stereo unspecified) [NORDIHYDROGUAIARETIC ACID] | – | – | – | 205 | 15.1 | 45.8 | 62.5 | – |
| CS(=O)(=O)c1ccc(C#CC(=O)c2ccc([N+](=O)[O-])cc2)cc1 | 6.2 | 0.25 | > 10 | – | – | – | – | – |
| COc1cc(C(=O)C#Cc2ccc(S(C)(=O)=O)cc2)cc(OC)c1OC | 7 | – | – | 113 | 35.7 | 60.2 | 46.2 | – |
| COc1cccc(C(=O)C#Cc2ccc(S(C)(=O)=O)cc2)c1 | 9 | – | – | – | 24.2 | 72.6 | 54.7 | – |
| CS(=O)(=O)c1ccc(C#CC(=O)c2ccc(C(F)(F)F)cc2)cc1 | > 10 | – | – | – | 16.2 | 38 | 66.2 | – |
| COc1ccc(C(=O)C#Cc2ccc(S(C)(=O)=O)cc2)c2ccccc12 | > 10 | > 100 | 0.3 | – | 24 | 56.7 | 36.7 | – |
| CC(C)c1ccc(C(=O)C#Cc2ccc(S(C)(=O)=O)cc2)cc1 | – | 9.2 | 0.36 | 35 | 48.1 | 40.7 | 53.7 | – |
| Cc1ccc(C(=O)C#Cc2ccc(S(C)(=O)=O)cc2)cc1 | > 10 | – | – | – | – | – | – | – |
| CS(=O)(=O)c1ccc(C#CC(=O)c2ccc(S(C)(=O)=O)cc2)cc1 | > 10 | > 100 | > 10 | – | – | – | – | – |
| CC(=O)Oc1ccccc1C(=O)O [ASPIRIN] | – | – | – | 129 | – | 29.7 | 46.4 | – |
| CS(=O)(=O)c1ccc(C#CC(=O)c2ccoc2)cc1 | 0.1 | 1 | > 10 | – | 26.4 | 57.7 | 76.6 | – |
